Assay results reported in US20230057891A1, “EGFR INHIBITORS” (Hoffmann-La Roche Inc., priority 2019, published 2023).

biological target: T1, EGFR TMLRCS (T790M/L858R/C797S) (Homo sapiens, UniProt P00533, C797S/L858R/T790M); assay: HTRF Phospho EGFR TMLRCS assay (cellular), BaF3-TMLRCS cells; assay type: cell-based; details: BaF3-TMLRCS cell line, 4 hours incubation
T1 construct: host or cells: BaF3-TMLRCS cell line
Experimental: HTRF Phospho EGFR TMLRCS Assay (Cellular)
BaF3-TMLRCS cell line were obtained from Crownbio (San Diego, Calif., USA). Cells were maintained at 37° C., 5% CO2 in RPMI ATCC (Gibco 31870)+2 mM Glutamine+0.5 μg/ml Puromycin supplemented with 10% fetal bovine serum (FBS) (Gibco).
Cells are transferred as above to Greiner Bio-One, Nr. 784-08 micro-titerplate at 20000 cells/well in 12.5 μl of growth medium/well after the plates had been pre-filled with 12.5 nl of DMSO solutions of the to be tested compound (in dose response) or DMSO only. After spinning the plates at 300×g for 30 seconds the cells were incubated for 4 hours at 37 C, 5% CO2, 95% humidity. The cells were lysed by adding to the compound mix 4 µl/well of the supplemented lysis buffer (Cis-bio, Phospho-EGFR HTRF kit, 64EG1PEH), followed by incubation for 30 min at room temperature with shaking (400 rpm). The plates were then frozen and stored overnight at −80 C. On the next day and after thawing the plates, 4 μl of a mixture of anti-Phospho-EGFR Cryptate and of anti-Phospho-EGFR-d2 antibody solutions prepared in the supplied detection buffer was added to each well. The lidded plates were then incubated for 4 h at room temperature before reading the fluorescence emission at 616 and 665 nm using an Envision reader (Perkin Elmer). Data was analyzed in similar fashion as above using the normalized ratio of the 665 to 616 signals multiplied by 10000.

T1 sequence (P00533 25-1210 T790M/C797S/L858R): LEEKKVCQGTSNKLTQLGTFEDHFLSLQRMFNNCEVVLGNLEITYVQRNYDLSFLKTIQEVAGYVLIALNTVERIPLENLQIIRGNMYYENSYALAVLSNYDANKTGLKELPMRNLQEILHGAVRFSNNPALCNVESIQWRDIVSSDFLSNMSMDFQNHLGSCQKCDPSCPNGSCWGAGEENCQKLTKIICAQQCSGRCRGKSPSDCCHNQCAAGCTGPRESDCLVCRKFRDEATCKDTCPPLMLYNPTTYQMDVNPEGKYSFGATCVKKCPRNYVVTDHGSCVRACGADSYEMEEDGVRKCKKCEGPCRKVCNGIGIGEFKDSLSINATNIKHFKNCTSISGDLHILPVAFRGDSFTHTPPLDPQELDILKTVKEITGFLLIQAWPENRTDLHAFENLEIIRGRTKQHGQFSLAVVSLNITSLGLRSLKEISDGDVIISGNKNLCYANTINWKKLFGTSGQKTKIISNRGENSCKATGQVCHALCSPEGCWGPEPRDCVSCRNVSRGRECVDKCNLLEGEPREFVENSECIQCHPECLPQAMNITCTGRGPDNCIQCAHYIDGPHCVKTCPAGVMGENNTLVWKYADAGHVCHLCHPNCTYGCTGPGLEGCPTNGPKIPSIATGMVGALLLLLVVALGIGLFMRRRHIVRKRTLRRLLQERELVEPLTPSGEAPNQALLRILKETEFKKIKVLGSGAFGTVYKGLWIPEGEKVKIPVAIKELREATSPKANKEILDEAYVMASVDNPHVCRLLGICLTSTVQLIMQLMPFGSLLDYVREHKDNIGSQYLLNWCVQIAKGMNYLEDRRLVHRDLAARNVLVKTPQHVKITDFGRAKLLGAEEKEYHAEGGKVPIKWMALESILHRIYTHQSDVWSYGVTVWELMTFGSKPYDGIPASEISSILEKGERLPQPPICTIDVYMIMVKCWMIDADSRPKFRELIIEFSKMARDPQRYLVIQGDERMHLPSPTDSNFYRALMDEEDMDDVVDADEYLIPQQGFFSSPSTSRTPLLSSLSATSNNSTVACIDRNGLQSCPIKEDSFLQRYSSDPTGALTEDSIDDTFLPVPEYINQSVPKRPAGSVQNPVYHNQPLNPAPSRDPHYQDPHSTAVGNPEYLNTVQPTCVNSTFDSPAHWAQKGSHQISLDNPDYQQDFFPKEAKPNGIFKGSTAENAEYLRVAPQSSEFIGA

IC50 [nM]	Compound
9	O=C(Nc1nccs1)C(c1ncn2c1CCC2)N1Cc2c(Cl)cc(-c3ccc(C45CC(CN6CCC(CO)CC6)(C4)C5)cc3)cc2C1=O (racemic) [Example 1, (2RS)-2-(6,7-Dihydro-5H-pyrrolo[1,2-c]imidazol-1-yl)-2-[4-chloro-6-[4-[3-[[4-(hydroxymethyl)-1-piperidyl]methyl]-1-bicyclo[1.1.1]pentanyl]phenyl]-1-oxo-isoindolin-2-yl]-N-thiazol-2-yl-acetamide]
4	O=C(Nc1nccs1)C(c1ncn2c1CCC2)N1Cc2c(F)cc(-c3ccc(C45CC(CN6CCC(CO)CC6)(C4)C5)cc3)cc2C1=O (racemic) [Example 2, (2RS)-2-(6,7-Dihydro-5H-pyrrolo[1,2-c]imidazol-1-yl)-2-[4-fluoro-6-[4-[3-[[4-(hydroxymethyl)-1-piperidyl]methyl]-1-bicyclo[1.1.1]pentanyl]phenyl]-1-oxo-isoindolin-2-yl]-N-thiazol-2-yl-acetamide]
10	CN(C)CC12CC(c3ccc(-c4cc(F)c5c(c4)C(=O)N(C(C(=O)Nc4nccs4)c4ncn6c4CCC6)C5)cc3)(C1)C2 (racemic) [Example 3, (2RS)-2-(6,7-Dihydro-5H-pyrrolo[1,2-c]imidazol-1-yl)-2-[6-[4-[3-[(dimethylamino)methyl]-1-bicyclo[1.1.1]pentanyl]phenyl]-4-fluoro-1-oxo-isoindolin-2-yl]-N-thiazol-2-yl-acetamide]
13	O=C(Nc1nccs1)C(c1ncn2c1CCC2)N1Cc2c(F)cc(-c3ccc(C45CC(CN6CCC(O)CC6)(C4)C5)cc3)cc2C1=O (racemic) [Example 4, (2RS)-2-(6,7-Dihydro-5H-pyrrolo[1,2-c]imidazol-1-yl)-2-[4-fluoro-6-[4-[3-[(4-hydroxy-1-piperidyl)methyl]-1-bicyclo[1.1.1]pentanyl]phenyl]-1-oxo-isoindolin-2-yl]-N-thiazol-2-yl-acetamide]
13	O=C(Nc1nccs1)C(c1ncn2c1CCC2)N1Cc2c(F)cc(-c3ccc(C45CC(CN6CCCC6)(C4)C5)cc3)cc2C1=O (racemic) [Example 5, (2RS)-2-(6,7-Dihydro-5H-pyrrolo[1,2-c]imidazol-1-yl)-2-[4-fluoro-1-oxo-6-[4-[3-(pyrrolidin-1-ylmethyl)-1-bicyclo[1.1.1]pentanyl]phenyl]isoindolin-2-yl]-N-thiazol-2-yl-acetamide]
8	O=C(Nc1nccs1)C(c1ncn2c1CCC2)N1Cc2c(F)cc(-c3ccc(C45CC(CN6CCCC(O)CC6)(C4)C5)cc3)cc2C1=O (racemic) [Example 6, (2RS)-2-(6,7-Dihydro-5H-pyrrolo[1,2-c]imidazol-1-yl)-2-[4-fluoro-6-[4-[3-[[(4RS)-4-hydroxyazepan-1-yl]methyl]-1-bicyclo[1.1.1]pentanyl]phenyl]-1-oxo-isoindolin-2-yl]-N-thiazol-2-yl-acetamide]
4	O=C(Nc1nccs1)C(c1ncn2c1CCC2)N1Cc2c(F)cc(-c3ccc(C45CC(CN6CCC(CO)CC6)(C4)C5)cc3)c(F)c2C1=O (racemic) [Example 7, (2RS)-2-[4,7-Difluoro-6-[4-[3-[[4-(hydroxymethyl)-1-piperidyl]methyl]-1-bicyclo[1.1.1]pentanyl]phenyl]-1-oxo-isoindolin-2-yl]-2-(6,7-dihydro-5H-pyrrolo[1,2-c]imidazol-1-yl)-N-thiazol-2-yl-acetamide]
